Results reported in US9289430B2, “Compounds and methods for inhibiting phosphate transport” (Ardelyx, Inc., priority 2010, dated 2016).

Key:
[1] = target: T1, human NaP2b (SLC34A2) (Homo sapiens, UniProt O95436); assay: NaP2b-mediated Pi transport: 33P phosphate uptake into transfected HEK293 cells; type: cell-based; conditions: human protein with threonine inserted after residue 37 and N39D, 100 uM KH2PO4, read-out: pIC50 range for human Nap2b (converted)
T1 construct: host or cells: HEK293
T1 sequence (O95436 1-690): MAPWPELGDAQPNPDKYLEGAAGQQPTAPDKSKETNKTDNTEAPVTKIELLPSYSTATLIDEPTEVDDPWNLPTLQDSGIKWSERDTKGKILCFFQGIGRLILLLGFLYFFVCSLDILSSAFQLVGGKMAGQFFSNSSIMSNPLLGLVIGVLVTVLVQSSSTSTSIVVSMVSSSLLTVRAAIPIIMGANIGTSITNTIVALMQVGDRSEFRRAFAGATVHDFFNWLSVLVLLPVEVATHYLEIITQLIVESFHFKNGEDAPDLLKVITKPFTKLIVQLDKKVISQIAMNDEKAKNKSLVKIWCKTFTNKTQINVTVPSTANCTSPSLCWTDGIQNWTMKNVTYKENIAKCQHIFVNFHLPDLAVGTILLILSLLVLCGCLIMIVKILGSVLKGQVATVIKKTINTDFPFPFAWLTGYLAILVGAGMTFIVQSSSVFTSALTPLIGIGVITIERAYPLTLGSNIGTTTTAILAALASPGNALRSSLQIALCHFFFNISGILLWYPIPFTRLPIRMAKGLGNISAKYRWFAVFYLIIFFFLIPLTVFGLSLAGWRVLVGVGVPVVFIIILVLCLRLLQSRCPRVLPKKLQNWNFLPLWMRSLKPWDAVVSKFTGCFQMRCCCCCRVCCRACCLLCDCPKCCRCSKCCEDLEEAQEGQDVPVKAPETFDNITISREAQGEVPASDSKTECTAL
Description: (§1) Materials. HEK293 cells were obtained from the American Type Culture collection and propagated per their instructions. Expression clones for rat and human NaP2b (SLC34A2) were obtained from Open Biosystems (Catalog numbers MRN1768-9510282, and MHS1010-99823026, respectively). The sequence of the human protein was mutated to insert a threonine after residue 37, and to introduce a N39D mutation.
(§2) Inhibition of Pi Transport. The rate of phosphate (Pi) uptake into HEK293 cells was measured using a modification of the method described by Mohrmann et al. (Mohrmann, I., Mohrmann, M., Biber, J., and Murer, H. (1986) Am. J. Phys. 250(3 Pt 1):G323-30.) Transfected HEK293 cells were treated with a pharmacological agent to minimize endogenous PiT-mediated phosphate transport activity, such that the only remaining sodium-dependent phosphate transport activity is that which was bestowed by introduction of the NaP2b genes.
(§3) Cells were seeded into 96-well plates at 25,000 cells/well and cultured overnight. Lipofectamine 2000 (Invitrogen) was used to introduce the NaP2b cDNA, and the cells were allowed to approach confluence during a second overnight incubation. […] Cells were then overlayed with either choline uptake buffer or sodium uptake buffer (14 mM Tris, 137 mM sodium chloride, 5.4 mM KCl, 2.8 mM CaCl2, 1.2 mM MgSO4, 100 uM KH2PO4, PiT-silencing agent, 1 mg/mL Bovine Serum Albumin, pH 7.4) containing 6-9 uCi/mL ^33P orthophosphoric acid (Perkin Elmer) and test compound. Each compound was tested at twelve concentrations ranging from 0.1 nM to 30 uM. Assays were run in duplicate.
(§4) After incubation for 3-30 minutes at room temperature, assay mixtures were removed, and the cells were washed twice with ice cold stop solution (137 mM sodium chloride, 14 mM Tris, pH 7.4). Cells were lysed by addition of 20 μL 0.1% Tween 80 followed by 100 μL scintillation fluid, and counted using a TopCount (Perkin Elmer).
(§5) pIC50 (the negative log of the IC50) values of the test compounds were calculated using GraphPad Prism.

[2] = target: T2, rat NaP2b (SLC34A2) (Rattus norvegicus, UniProt Q9JJ09); assay: as above; type: cell-based; conditions: 100 uM KH2PO4, PiT-silencing agent; for IC50: read-out: pIC50 range for rat Nap2b (converted)
T2 construct: host or cells: HEK293
T2 sequence (Q9JJ09 1-695): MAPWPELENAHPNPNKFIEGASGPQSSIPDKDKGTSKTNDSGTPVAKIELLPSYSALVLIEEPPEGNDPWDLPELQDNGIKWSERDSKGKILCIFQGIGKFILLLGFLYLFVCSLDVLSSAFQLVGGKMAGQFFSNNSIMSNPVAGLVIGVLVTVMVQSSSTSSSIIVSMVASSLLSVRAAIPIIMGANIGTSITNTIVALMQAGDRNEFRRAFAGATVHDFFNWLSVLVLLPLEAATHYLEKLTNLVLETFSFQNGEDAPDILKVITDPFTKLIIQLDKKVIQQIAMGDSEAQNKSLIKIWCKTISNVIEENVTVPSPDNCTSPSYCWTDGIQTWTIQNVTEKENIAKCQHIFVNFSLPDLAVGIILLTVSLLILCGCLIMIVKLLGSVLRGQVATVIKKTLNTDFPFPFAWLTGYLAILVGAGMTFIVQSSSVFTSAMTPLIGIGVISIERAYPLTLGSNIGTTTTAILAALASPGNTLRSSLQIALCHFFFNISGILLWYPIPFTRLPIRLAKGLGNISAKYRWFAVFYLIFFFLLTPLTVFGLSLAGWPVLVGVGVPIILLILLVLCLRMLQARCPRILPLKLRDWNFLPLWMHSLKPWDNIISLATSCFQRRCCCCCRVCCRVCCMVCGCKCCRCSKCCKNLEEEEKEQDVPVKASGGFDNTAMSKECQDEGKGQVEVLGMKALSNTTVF
Description: as §1, §2, §3, §4, §5

[3] = system: Uptake of Phosphate from the Intestine; assay: In vivo bolus phosphorus challenge; set-up: species or system Sprague-Dawley rats; conditions: rats on low-phosphorus diet, oral drug dose 30 (unit not given) 15 min before phosphate bolus, serum 30 min post bolus
Description: By pretreating animals with a low phosphorus diet followed by the subsequent dosing of a phosphorus bolus, serum phosphorus levels were monitored after 30 minutes as a surrogate for intestinal phosphorus absorption. […] The in vivo bolus phosphorus challenge model used here mimics this model in rats.
Male, 7-week-old Sprague-Dawley rats (Charles-River laboratories international, Hollister, Calif.) were allowed to acclimatize for a minimum of 3 days before switching to a synthetic low-phosphorus diet (TD.85010, Harlan Teklad, Madison, Wis.) which contains 0.1% phosphorus and 0.6% calcium. At day 5, testing compounds or vehicle alone (as indicated) were orally administered at the indicated dose in a volume of 5 ml/kg, followed by a bolus gavage of monobasic sodium phosphate (1 mmol in 1 ml) 15 min after compound dosing. Serum was collected via retroorbital bleeding 30 min post phosphate bolus and phosphate levels were determined utilizing an ACE ALERA blood chemistry analyzer (Alfa Wassermann Diagnostic Technologies, West Caldwell, N.J.).
The extent of inhibition by test compounds on the elevation of serum phosphate levels in response to the bolus of phosphate is shown in Table 3 (data are expressed as % Inhibition, with 6-10 animals per data point). The differences between groups were evaluated by one-way analysis of variance with Dunnett's post hoc tests.

[4] = Fecal recovery of orally administered compounds; type: in vivo, Sprague-Dawley rats; conditions: rats, oral gavage, feces 0-48 hr after dosing
Description: Quantitative determination of test compound level in feces after oral gavage was performed using the same set of animals used to determine test compound concentration in plasma (Example 30). The animals were kept in metabolic cages and feces were collected from the time of dosing until 48 hr after dosing. Upon collection, feces was dried by lyophilization and ground to a visually homogenous powder. Duplicate samples of ground feces from each individual animal were weighed out and extracted using organic solvent. Extracted samples were then diluted into mobile phase and test compound levels were quantitatively determined by LC-MS/MS analysis as described in “Example 30” except that the standard curve was prepared in a feces matrix. Extraction conditions were not optimized for individual compounds, and thus may represent a minimal level of recovery.

[5] = system: NaPi2b; assay: Competition with phosphate: uptake assay repeated at 2.1 vs 0.1 mM phosphate; type: cell-based; conditions: potency for inhibition of NaPi2b at 2.1 vs 0.1 mM phosphate
Source text: In certain preferred embodiments, the phosphate transport inhibitors of the present invention are not competitive inhibitors with respect to phosphate of Na/phosphate co-transport. In certain other preferred embodiments, the phosphate transport inhibitors of the invention are non-competitive inhibitors. Non-competitive inhibitors maintain their degree of inhibition irrespective of the local phosphate concentration. This feature is an important aspect in providing an efficient blockade of intestinal transport in postprandial state, where the local concentration of dietary phosphate can attain concentration as high as 10 mM. It is believed that competitive inhibitors are too sensitive to local phosphate concentration and unable to block phosphate uptake following a high phosphorus meal. Various methods are available for determining whether a phosphate transport inhibitor is non-competitive or competitive. For example, a phosphate uptake assay can be performed and the IC50 values for a compound at different phosphate concentrations can be determined (e.g., “Enzyme kinetics”, I. Segel, 1975, John-Wiley & Sons, p. 123). IC50 values for non-competitive inhibitors will remain the same or similar with respect to the phosphate concentration, whereas IC50 values for competitive inhibitors will increase (i.e. lose potency) as phosphate concentration increases.
To ascertain if an inhibitor was competitive for binding with phosphate, the procedure was repeated, but raising the concentration of the substrate in the assay mixture from 0.1 to 2.1 mM phosphate.

[6] = Determination of compound Cmax and AUC after oral gavage; type: in vivo, Sprague-Dawley rats; conditions: Sprague-Dawley, rat plasma, sampling 0.5-4 h
Description: Sprague-Dawley rats were orally gavaged with test article at a nominal dose of 2.5 or 10 mg/kg and blood was collected at 0.5, 1, 2 and 4 h. Blood samples were processed to plasma using K2EDTA as an anticoagulant. Plasma samples were treated with acetonitrile containing an internal standard, precipitated proteins removed by centrifugation. Supernatants were analyzed by LC-MS/MS and compound concentrations were determined by interpolated from a standard curve prepared in plasma. All compounds were orally dosed at the dosage shown, and pharmacokinetic parameters determined

[7] = Stability in simulated gastric and intestinal fluid; type: in vitro ADME; conditions: 6 hr, 1-20 μM
Description: Test compounds were incubated at 1-20 μM in simulated gastric fluid (SGF; standard USP solution with 3 mg/mL pepsin) or simulated intestinal fluid (SIF; standard USP solution with 3 mg/mL pancreatin) for 3 hr or 6 hr. HPLC-UV or HPLC-MS were used to determine test compound levels using peak area %. Results (Table 5) were reported as the percentage of test compound remaining after incubation in a given condition relative to test compound present at t=0 in the same condition.

[8] = nominal 10 mg/kg (actual 7.6-11 mg/kg)
[9] = nominal 2.5 mg/kg (actual 1.9 mg/kg)

IC50 [1] [nM] | IC50 [2] [nM] | % recovered in feces [4, 8] [%] | SMILES | further results
< 1000 | < 1000 |  | CN(CCN1CCOCC1)C(=O)c1cccc(C(=O)Nc2ccc(N3CCCCC3)cc2C(=O)Nc2nc(-c3cccc(C(F)(F)F)c3)n[nH]2)c1 [Example 1, N1-Methyl-N1-(2-morpholinoethyl)-N3-(4-(piperidin-1-yl)-2-((3-(3-(trifluoromethyl)phenyl)-1H-1,2,4-triazol-5-yl)carbamoyl)phenyl)isophthalamide] | 
 | 1000 to 7940 | 60 | O=C(O)c1cccc(SCc2cccc(C(=O)Nc3ccc(N4CCCCC4)cc3C(=O)Nc3ccn(-c4cccc(C(F)(F)F)c4)n3)c2)c1 [Example 18, 3-((3-((4-(Piperidin-1-yl)-2-((1-(3-(trifluoromethyl)phenyl)-1H-pyrazol-3-yl)carbamoyl)phenyl)carbamoyl)benzyl)thio)benzoic acid] | Competitive with respect to Pi? [5]: No; AUC [6, 9]: 2130 ng·h/mL; Cmax [6, 9]: 678 ng/mL; AUC [6, 8]: 6050 ng·h/mL; Cmax [6, 8]: 1820 ng/mL; % recovered in feces ([4]; dosed at 1.9 mg/kg): 12%
1000 to 7940 | 1000 to 7940 |  | CN(CCOCCOCCOCCC(=O)O)Cc1cccc(C(=O)Nc2ccc(N3CCCCC3)cc2C(=O)Nc2ccn(-c3cccc(C(F)(F)F)c3)n2)c1 [Example 17, 2-Methyl-1-(3-((4-(piperidin-1-yl)-2-((1-(3-(trifluoromethyl)phenyl)-1H-pyrazol-3-yl)carbamoyl)phenyl)carbamoyl)phenyl)-5,8,11-trioxa-2-azatetradecan-14-oic acid] | 

The next lines start with the compound.

SMILES | IC50 [1] [nM] | IC50 [2] [nM] | % recovered in feces [4, 8] [%] | further results
O=C(O)Cc1cccc(SCc2cccc(C(=O)Nc3ccc(N4CCCCC4)cc3C(=O)Nc3ccn(-c4cccc(C(F)(F)F)c4)n3)c2)c1 [Example 23, 2-(3-((3-((4-(Piperidin-1-yl)-2-((1-(3-(trifluoromethyl)phenyl)-1H-pyrazol-3-yl)carbamoyl)phenyl)carbamoyl)benzyl)thio)phenyl)acetic acid] | < 1000 | < 1000 |  | 
O=C(O)CCSCc1cccc(C(=O)Nc2ccc(N3CCCCC3)cc2C(=O)Nc2ccn(-c3cccc(C(F)(F)F)c3)n2)c1 [Example 7, 3-((3-((4-(Piperidin-1-yl)-2-((1-(3-(trifluoromethyl)phenyl)-1H-pyrazol-3-yl)carbamoyl)phenyl)carbamoyl)benzyl)thio)propanoic acid] | 1000 to 7940 | 1000 to 7940 | 9.5 | % Inhibition of Serum P elevation [3]: 49%
O=C(O)CCOCCOCCOCCNC(=O)c1cccc(C(=O)Nc2ccc(Cl)cc2C(=O)Nc2ccn(-c3cccc(C(F)(F)F)c3)n2)c1 [Example 25, 1-(3-((4-chloro-2-((1-(3-(trifluoromethyl)phenyl)-1H-pyrazol-3-yl)-carbamoyl)phenyl)carbamoyl)phenyl)-1-oxo-5,8,11-trioxa-2-azatetradecan-14-oic acid] |  |  | 17 | % remaining, SGF ([7]; simulated gastric fluid with 3 mg/mL pepsin): 58%; % remaining, SIF ([7]; simulated intestinal fluid with 3 mg/mL pancreatin): 95%; AUC [6, 8]: < 3 ng·h/mL
O=C(O)P(=O)(O)O [PFA, reference compound] |  |  |  | pIC50 range for rat Nap2b [2]: 2-3; Competitive with respect to Pi? [5]: Yes
